This note sets out measurements from US20210380548A1, “Fused [1,2,4]Thiadiazine Derivatives Which Act as KAT Inhibitors of the MYST Family” (CTxT Pty Limited, priority 2017, published 2021).

For assay [1], the target named is T1, TIP60-KAT5 (Homo sapiens, UniProt Q92993).
T1 construct: encoding amino acid residues 2 to 461 (Uniprot Q92993-2) of human KAT5 isoform; made in house; host or cells: E. coli BL21 DE3
Briefly: Acetyltransferase biochemical assay (AlphaScreen), KAT5. The settings on record: Table 1 (TIP60-KAT5); 0.4 μM Acetyl coenzyme A, histone H4, 10 nM enzyme. On the technique in general: Alpha assays give light when donor and acceptor beads are brought close together.

Assay [2] has as its target T2, MOZ-KAT6A (Homo sapiens, UniProt Q92794, A567V).
T2 construct: encoding amino acid residues 507 to 778 (Uniprot Q92794-1) of human KAT6A; made in house; host or cells: E. coli BL21 DE3
Briefly: Acetyltransferase biochemical assay (AlphaScreen), KAT6A. The settings on record: Table 2 (MOZ-KAT6A); 10 μM Acetyl coenzyme A, histone H3.1, 5 nM enzyme.

Assay [3] addresses T2, MOZ-KAT6A. The experiment in a line: Revised Acetyltransferase Biochemical Assay, KAT6A. The settings on record: Table 8 (MOZ-KAT6A), 1 μM Acetyl coenzyme A.
Assay [4] addresses T1, TIP60-KAT5. The experiment in a line: Revised Acetyltransferase Biochemical Assay, KAT5. The settings on record: 10 nM KAT5, 1 μM AcCoA, 100 nM histone H4, 90 min.
For assay [5], the target named is T3, HBO-KAT7 (Homo sapiens, UniProt O95251).
T3 construct: encoding amino acid residues 325 to 611 (Uniprot 095251-1) of human KAT7; made in house; host or cells: E. coli BL21 DE3 RIL
Briefly: Acetyltransferase biochemical assay (AlphaScreen), KAT7. The settings on record: Table 3 (HBO-KAT7); 0.4 μM Acetyl coenzyme A, histone H3.1, 40 nM enzyme.

In assay [6] the target is T3, HBO-KAT7. The experiment in a line: Revised Acetyltransferase Biochemical Assay, KAT7. The settings on record: Table 9 (HBO-KAT7), 1 μM Acetyl coenzyme A.

T2 sequence (Q92794 507-778 A567V limits assumed): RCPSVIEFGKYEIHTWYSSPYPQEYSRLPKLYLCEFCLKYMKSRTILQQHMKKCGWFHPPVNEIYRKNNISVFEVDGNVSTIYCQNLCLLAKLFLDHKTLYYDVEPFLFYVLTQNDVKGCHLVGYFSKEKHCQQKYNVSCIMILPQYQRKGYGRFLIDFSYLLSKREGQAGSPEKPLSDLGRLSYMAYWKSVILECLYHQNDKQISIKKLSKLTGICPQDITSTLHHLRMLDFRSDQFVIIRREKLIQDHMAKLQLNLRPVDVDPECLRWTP
T3 sequence (O95251 with tags, fused parts or gaps): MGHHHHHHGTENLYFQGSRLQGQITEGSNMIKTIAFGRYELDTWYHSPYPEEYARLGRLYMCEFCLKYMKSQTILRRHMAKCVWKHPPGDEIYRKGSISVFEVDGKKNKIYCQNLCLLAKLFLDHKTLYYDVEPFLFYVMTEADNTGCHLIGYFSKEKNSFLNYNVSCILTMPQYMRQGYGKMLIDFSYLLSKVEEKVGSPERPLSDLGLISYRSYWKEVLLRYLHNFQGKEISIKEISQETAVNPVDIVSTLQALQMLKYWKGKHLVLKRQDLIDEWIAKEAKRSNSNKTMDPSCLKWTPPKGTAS
T1 sequence (Q92993 2-461 isoform Q92993-2): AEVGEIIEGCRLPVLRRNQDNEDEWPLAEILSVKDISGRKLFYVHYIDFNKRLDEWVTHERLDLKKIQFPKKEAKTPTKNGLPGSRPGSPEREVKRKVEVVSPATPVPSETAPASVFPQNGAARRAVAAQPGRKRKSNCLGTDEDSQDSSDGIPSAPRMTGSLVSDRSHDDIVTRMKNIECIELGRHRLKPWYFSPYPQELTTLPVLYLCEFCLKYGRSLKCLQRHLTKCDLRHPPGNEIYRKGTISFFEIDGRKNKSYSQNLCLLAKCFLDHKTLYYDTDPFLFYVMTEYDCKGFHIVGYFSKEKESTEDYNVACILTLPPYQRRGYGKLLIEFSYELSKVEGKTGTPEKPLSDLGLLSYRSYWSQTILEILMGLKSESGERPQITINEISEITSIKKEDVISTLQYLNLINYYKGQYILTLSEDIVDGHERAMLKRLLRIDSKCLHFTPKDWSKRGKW

Broadly, the IC50 is the point on the concentration scale where inhibition reaches its midpoint. A higher IC50 goes with weaker potency. For `O=C(NCC(c1ccccc1)c1ncco1)C1=Nc2ccc(F)cc2S(=O)(=O)N1` (single isomer, unassigned) [Example 145], the IC50 is 18.9 µM on TIP60-KAT5 [1], 3.73 µM against MOZ-KAT6A [2], 0.649 µM on MOZ-KAT6A [3] and 7.46 µM on TIP60-KAT5 [4].
`CNC(=O)Cn1cc(-c2ccc3c(c2)S(=O)(=O)NC(C(=O)NCC(c2ccccc2)c2ncco2)=N3)cn1` (stereo not shown) [Example 9, 7-(1-(2-(Methylamino)-2-oxoethyl)-1H-pyrazol-4-yl)-N-(2-(oxazol-2-yl)-2-phenylethyl)-2H-benzo[e][1,2,4]thiadiazine-3-carboxamide 1,1-dioxide]: the IC50 is 12.4 µM at TIP60-KAT5 [1], 0.0421 µM on MOZ-KAT6A [2] and 20.1 µM against HBO-KAT7 [5].
For `Nc1ccc2c(c1)S(=O)(=O)NC(C(=O)NCC(c1ccccc1)c1ncco1)=N2` (stereo not shown) [Example 11, 7-Amino-N-(2-(oxazol-2-yl)-2-phenylethyl)-2H-benzo[e][1,2,4]thiadiazine-3-carboxamide 1,1-dioxide] the same measures were 11.8 µM, 1.81 µM and 2.53 µM.
For the compound `O=C(NCC(c1ccccc1)c1ccccc1)C1=Nc2ccc(Br)cc2S(=O)(=O)N1` [Example 15, 7-Bromo-N-(2,2-diphenylethyl)-2H-benzo[e][1,2,4]thiadiazine-3-carboxamide 1,1-dioxide], the 50% inhibitory concentration (IC50) against TIP60-KAT5 [1] was 1.4 µM; on MOZ-KAT6A [2], 0.211 µM; against MOZ-KAT6A [3] it was 0.682 µM; against HBO-KAT7 [6], 0.874 µM; against TIP60-KAT5 [4], 5.55 µM.
For `COC(=O)c1ccc2c(c1)S(=O)(=O)NC(C(=O)NCC(c1ccccc1)c1ncco1)=N2` (stereo not shown) [Example 23, Methyl 3-((2-(oxazol-2-yl)-2-phenylethyl)carbamoyl)-2H-benzo[e][1,2,4]thiadiazine-7-carboxylate 1,1-dioxide], the IC50 against TIP60-KAT5 [1] turned out to be 3.73 µM; against MOZ-KAT6A [2] it was 0.056 µM; against MOZ-KAT6A [3] it was 0.12 µM; against HBO-KAT7 [6], 2.88 µM; at TIP60-KAT5 [4] it was 1.73 µM.
As for `O=C(NCCc1ccccc1Br)C1=Nc2ccccc2S(=O)(=O)N1` [Example 28, N-(2-Bromophenethyl)-2H-benzo[e][1,2,4]thiadiazine-3-carboxamide 1,1-dioxide], the IC50 worked out at 63.5 µM against TIP60-KAT5 [1], 4.42 µM on MOZ-KAT6A [2] and 15.7 µM against HBO-KAT7 [5].
Consider `CCOC(=O)NC(CNC(=O)C1=Nc2ccccc2S(=O)(=O)N1)c1ccccc1` (stereo not shown) [Example 49, Ethyl (2-(1,1-dioxido-2H-benzo[e][1,2,4]thiadiazine-3-carboxamido)-1-phenylethyl)carbamate], for which the IC50 against TIP60-KAT5 [1] is more than 125 µM; on MOZ-KAT6A [2], 7.67 µM; at MOZ-KAT6A [3], 1.68 µM; at HBO-KAT7 [6], 3.13 µM; on TIP60-KAT5 [4], more than 125 µM.
For the compound `O=C(NCCc1ccccc1F)C1=Nc2ccc(Br)cc2S(=O)(=O)N1` [Example 81], the IC50 at TIP60-KAT5 [1] amounted to 4.9 µM; at MOZ-KAT6A [2], 1.61 µM; against MOZ-KAT6A [3], 0.552 µM; at HBO-KAT7 [6], 4.6 µM; on TIP60-KAT5 [4], 6.65 µM.
For the compound `N#Cc1ccccc1CCNC(=O)C1=Nc2ccc(Br)cc2S(=O)(=O)N1` [Example 83], the IC50 stood at 7.38 µM against TIP60-KAT5 [1] and 2.61 µM on MOZ-KAT6A [2].
On to `O=C(NCC(c1ccccc1)c1cc2ccccc2[nH]1)C1=Nc2ccc(Br)cc2S(=O)(=O)N1` (stereo not shown) [Example 85], for which the figures for the IC50 against TIP60-KAT5 [1] and against MOZ-KAT6A [2] were 5.97 µM and 8.1 µM, respectively.
Regarding `CCNC(=O)C(CNC(=O)C1=Nc2ccccc2S(=O)(=O)N1)c1ccccc1` (stereo not shown) [Example 131], the results for the IC50 against TIP60-KAT5 [1] and at MOZ-KAT6A [2] were more than 125 µM and 62.3 µM, respectively.
In the case of `O=C(NCC(C(=O)N1CCCCC1)c1ccccc1)C1=Nc2ccccc2S(=O)(=O)N1` (stereo not shown) [Example 133], the IC50 against TIP60-KAT5 [1] and at MOZ-KAT6A [2] was more than 125 µM in each case.
With `O=C(NCC(C(=O)O)c1ccccc1)C1=Nc2ccccc2S(=O)(=O)N1` (stereo not shown) [Example 154, 3-(1,1-Dioxido-2H-benzo[e][1,2,4]thiadiazine-3-carboxamido)-2-phenylpropanoic Acid], the IC50 at TIP60-KAT5 [1] and on MOZ-KAT6A [2] was more than 125 µM in each case.
